Laboratory results reported in the supplement of paper PMC7840683.
± gives the standard deviation of the averaged measurements.

System: HepaRG
Test: LDH release cytotoxicity, % of total lysis control; higher = more cytotoxic
Details: 48 h
In short: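 Eight-point half-log series of test chemicals, the highest at 100 µM, were given in duplicate for 48 h to single-lot HepaRG cells on collagen I-coated 96-well plates in serum-free induction medium with 0.5% DMSO. A Tecan Safire read resorufin fluorescence from CytoTox-ONE as a measure of LDH in 50 µL spent medium, with 0.1% Triton X in total lysis wells. Percent cytotoxicity was normalized to on-plate vehicle and total lysis controls and averaged over the duplicates.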

OCc1ccccc1 [Benzyl alcohol]
Details	LDH release cytotoxicity [%]
0.03162 µM	-0.977 ± 0.76
0.1 µM	-1.47 ± 0.31
0.3162278 µM	-1.57 ± 1.4
1 µM	-2.41 ± 1.3
3.16228 µM	-1.69 ± 0.91
10 µM	-1.73 ± 1.6
31.6228 µM	-1.32 ± 1.4
100 µM	-1.07 ± 1.2

O=C(O)c1cccc(CC2COc3ccc(OCc4nc5cc(F)ccc5s4)cc3C2O)c1 (stereo unspecified)
Details	LDH release cytotoxicity [%]
0.03162 µM	-0.0534 ± 0.17
0.1 µM	-0.136 ± 0.15
0.3162278 µM	-0.338 ± 0.55
1 µM	-1.53 ± 0.39
3.16228 µM	-0.67 ± 0.41
10 µM	-0.7031 ± 0.0048
31.6228 µM	0.475 ± 0.99
100 µM	39.6 ± 3.9

CCCCC(CC)COC(=O)CCCCCCCC(=O)OCC(CC)CCCC (stereo unspecified) [Bis(2-ethylhexyl) nonanedioate]
Details	LDH release cytotoxicity [%]
0.03162 µM	-1.88 ± 0.055
0.1 µM	-2.868 ± 0.0068
0.3162278 µM	-2.85 ± 0.81
1 µM	-3 ± 0.21
3.16228 µM	-2.9 ± 0.15
10 µM	-2.46 ± 0.2
31.6228 µM	-2.95 ± 0.69
100 µM	-1.1 ± 0.36

O=C(O)Cc1cc(I)c(Oc2cc(I)c(O)c(I)c2)c(I)c1 [Tetrac]
Details	LDH release cytotoxicity [%]
0.0211873 µM	0.0963 ± 1.1
0.067 µM	-0.0291 ± 0.51
0.211873 µM	0.0359 ± 0.7
0.67 µM	0.258 ± 1.1
2.11873 µM	1.04 ± 0.39
6.7 µM	0.279 ± 0.69
21.1873 µM	-0.194 ± 0.92
67 µM	34 ± 0.74

CCC(C)c1ccc(O)cc1 (stereo unspecified) [4-(Butan-2-yl)phenol]
Details	LDH release cytotoxicity [%]
0.03162 µM	-1.68 ± 0.31
0.1 µM	-2.9 ± 0.076
0.3162278 µM	-2.9 ± 0.23
1 µM	-3.15 ± 0.78
3.16228 µM	-2.86 ± 0.48
10 µM	-2.62 ± 0.47
31.6228 µM	-1.77 ± 0.96
100 µM	-0.982 ± 0.8

O=Cc1ccco1 [Furfural]
Details	LDH release cytotoxicity [%]
0.03162 µM	-1.57 ± 0.78
0.1 µM	-2.07 ± 1.7
0.3162278 µM	-2.64 ± 0.63
1 µM	-3.82 ± 2.1
3.16228 µM	-4.51 ± 0.77
10 µM	-0.135 ± 1.1
31.6228 µM	-0.567 ± 0.12
100 µM	3.05 ± 1.1

N#Cc1cccnc1 [3-Pyridinecarbonitrile]
Details	LDH release cytotoxicity [%]
0.03162 µM	-1.36 ± 2
0.1 µM	-2.41 ± 0.16
0.3162278 µM	-2.8 ± 0.062
1 µM	-2.872 ± 0.0079
3.16228 µM	-3.04 ± 0.12
10 µM	-2.26 ± 0.059
31.6228 µM	-2.04 ± 0.41
100 µM	-1.31 ± 0.76

COP(=O)(OC)OC=C(Cl)Cl [Dichlorvos]
Details	LDH release cytotoxicity [%]
0.03162 µM	-0.581 ± 0.43
0.1 µM	-0.968 ± 0.24
0.3162278 µM	-1.1 ± 0.092
1 µM	-0.845 ± 0.11
3.16228 µM	-0.267 ± 0.61
10 µM	-0.149 ± 0.26
31.6228 µM	-0.147 ± 0.48
100 µM	2.09 ± 0.43

CNC(=O)ON=C(C)SC [Methomyl]
Details	LDH release cytotoxicity [%]
0.03162 µM	-0.681 ± 0.27
0.1 µM	-1.04 ± 0.28
0.3162278 µM	-0.724 ± 0.3
1 µM	-0.623 ± 0.49
3.16228 µM	-1.04 ± 0.3
10 µM	-0.128 ± 0.062
31.6228 µM	-1.13 ± 0.27
100 µM	-0.0692 ± 0.37

CCOC(=O)C(C)Oc1ccc(Oc2cnc3cc(Cl)ccc3n2)cc1 (stereo unspecified) [Quizalofop-ethyl]
Details	LDH release cytotoxicity [%]
0.0272 µM	-0.606 ± 1.1
0.086 µM	-0.619 ± 0.15
0.271956 µM	-0.991 ± 0.67
0.86 µM	-1.42 ± 0.21
2.71956 µM	-0.919 ± 0.39
8.6 µM	-0.541 ± 0.075
27.1956 µM	-0.469 ± 0.41
86 µM	-0.0561 ± 0.018

O=C(O)C(Cl)Cl [Dichloroacetic acid]
Details	LDH release cytotoxicity [%]
0.03162 µM	-1.93 ± 1.3
0.1 µM	-1.93 ± 0.89
0.3162278 µM	-1.5 ± 1.6
1 µM	-2.38 ± 1.1
3.16228 µM	-2.6 ± 1.3
10 µM	-1.71 ± 0.32
31.6228 µM	-2.34 ± 0.81
100 µM	0.0869 ± 1.1

C/C=C/c1ccc(OC)cc1 [(E)-Anethole]
Details	LDH release cytotoxicity [%]
0.03162 µM	-0.814 ± 0.42
0.1 µM	-0.865 ± 0.97
0.3162278 µM	-1.3 ± 0.57
1 µM	-0.855 ± 0.66
3.16228 µM	-1.25 ± 0.25
10 µM	-0.44 ± 0.067
31.6228 µM	-0.316 ± 0.29
100 µM	1.16 ± 1

O=c1c(-c2ccc(O)cc2)coc2cc(O)cc(O)c12 [Genistein]
Details	LDH release cytotoxicity [%]
0.03162 µM	-1.15 ± 0.87
0.1 µM	0.689 ± 1.7
0.3162278 µM	-2.06 ± 0.49
1 µM	-1.48 ± 0.77
3.16228 µM	-1.52 ± 0.039
10 µM	-1.28 ± 0.36
31.6228 µM	-1.5 ± 0.3
100 µM	1.33 ± 0.27

CC(C)CC(C)O (stereo unspecified) [4-Methyl-2-pentanol]
Details	LDH release cytotoxicity [%]
0.03162 µM	-0.36 ± 0.0099
0.1 µM	-0.242 ± 0.16
0.3162278 µM	-1.1 ± 0.37
1 µM	-1.21 ± 0.61
3.16228 µM	-1.33 ± 0.84
10 µM	-1.04 ± 0.65
31.6228 µM	0.165 ± 0.21
100 µM	2.03 ± 1

OCCNCCO [Diethanolamine]
Details	LDH release cytotoxicity [%]
0.031623 µM	-1.15 ± 0.87
0.1 µM	-1.45 ± 1.3
0.316228 µM	-1.83 ± 0.56
1 µM	-2.4 ± 0.18
3.16228 µM	-2.41 ± 0.4
10 µM	-1.71 ± 0.48
31.6228 µM	-0.726 ± 0.53
100 µM	0.309 ± 0.55

CC#Cc1cc(C)nc(Nc2ccccc2)n1 [Mepanipyrim]
Details	LDH release cytotoxicity [%]
0.03162 µM	-1.35 ± 0.26
0.1 µM	-1.3 ± 0.77
0.3162278 µM	-1.45 ± 0.36
1 µM	-1.69 ± 0.92
3.16228 µM	-0.377 ± 0.77
10 µM	0.835 ± 1.1
31.6228 µM	2.41 ± 0.37
100 µM	11.4 ± 0.23

CC(=NC#N)N(C)Cc1ccc(Cl)nc1 [Acetamiprid]
Details	LDH release cytotoxicity [%]
0.03162 µM	-2.01 ± 1.8
0.1 µM	-2.67 ± 0.84
0.3162278 µM	-2.61 ± 0.31
1 µM	-2.64 ± 0.13
3.16228 µM	-2.01 ± 0.025
10 µM	-2.44 ± 1.2
31.6228 µM	-2.262 ± 0.022
100 µM	0.254 ± 0.19

[As]#[In] [Indium arsenide]
Details	LDH release cytotoxicity [%]
0.03162 µM	0.449 ± 0.65
0.1 µM	-0.971 ± 1.1
0.3162278 µM	0.268 ± 0.68
1 µM	-0.269 ± 0.016
3.16228 µM	0.376 ± 0.79
10 µM	0.749 ± 0.43
31.6228 µM	0.141 ± 0.26
100 µM	1.11 ± 0.32

ClC1C(Cl)C(Cl)C(Cl)C(Cl)C1Cl (stereo not drawn) [beta-Hexachlorocyclohexane]
Details	LDH release cytotoxicity [%]
0.03162 µM	-4.28 ± 0.89
0.1 µM	-4.78 ± 1.2
0.3162278 µM	-4.47 ± 0.78
1 µM	-4.51 ± 0.96
3.16228 µM	-3.52 ± 0.096
10 µM	-2.88 ± 0.6
31.6228 µM	-2.3 ± 2
100 µM	-0.552 ± 0.4

O=C(Oc1ccc(Br)cc1)N1CCN2CCC1CC2
Details	LDH release cytotoxicity [%]
0.03162 µM	-1.87 ± 0.45
0.1 µM	-3.23 ± 2.2
0.3162278 µM	-0.984 ± 0.16
1 µM	-1.45 ± 0.27
3.16228 µM	-1.43 ± 0.56
10 µM	-1.29 ± 0.41
31.6228 µM	-0.718 ± 0.41
100 µM	0.972 ± 0.95

CCCCN(CCCC)SN(C)C(=O)Oc1cccc2c1OC(C)(C)C2 [Carbosulfan]
Details	LDH release cytotoxicity [%]
0.03162 µM	-3.56 ± 2.3
0.1 µM	-0.722 ± 0.37
0.3162278 µM	-0.938 ± 0.067
1 µM	-0.712 ± 0.067
3.16228 µM	0.429 ± 0.12
10 µM	0.717 ± 0.68
31.6228 µM	-0.247 ± 0.45
100 µM	0.466 ± 0.2

COC(=O)c1ccc(C(=O)OC)cc1 [Dimethyl terephthalate]
Details	LDH release cytotoxicity [%]
0.03162 µM	0.0234 ± 1
0.1 µM	-0.391 ± 1.6
0.3162278 µM	-1.12 ± 0.61
1 µM	-0.654 ± 0.052
3.16228 µM	-0.533 ± 0.33
10 µM	0.0948 ± 0.34
31.6228 µM	0.365 ± 0.88
100 µM	2.87 ± 0.72

CC(C)CCCCCCCOC(=O)c1ccccc1C(=O)OCCCCCCCC(C)C
Details	LDH release cytotoxicity [%]
0.03162 µM	-1.32 ± 0.57
0.1 µM	-1.15 ± 0.18
0.3162278 µM	-1.36 ± 0.46
1 µM	-1.26 ± 0.61
3.16228 µM	-0.979 ± 0.44
10 µM	-0.985 ± 0.6
31.6228 µM	-0.631 ± 0.57
100 µM	0.487 ± 0.66

CCCCOC(=O)c1ccccc1C(=O)OCCCC [Dibutyl phthalate]
Details	LDH release cytotoxicity [%]
0.03162 µM	6.54 ± 1.9
0.1 µM	3.46 ± 1.6
0.3162278 µM	3.28 ± 0.066
1 µM	4.3 ± 0.12
3.16228 µM	4.61 ± 0.89
10 µM	4.63 ± 1
31.6228 µM	6.08 ± 2
100 µM	9.42 ± 0.15

COC(=O)c1ccc(I)cc1S(=O)(=O)NC(=O)Nc1nc(C)nc(OC)n1 [Iodosulfuron-methyl-sodium]
Details	LDH release cytotoxicity [%]
0.03162 µM	-1.49 ± 0.12
0.1 µM	-0.389 ± 1.6
0.3162278 µM	-1.21 ± 0.34
1 µM	-0.477 ± 0.51
3.16228 µM	-0.16 ± 0.13
10 µM	0.897 ± 0.24
31.6228 µM	0.0334 ± 0.38
100 µM	2.49 ± 0.31

COC1COCCC1NC1CCC(C(=O)N2CCc3ncc(C(F)(F)F)cc3C2)(C(C)C)C1 (stereo unspecified) [MK-812]
Details	LDH release cytotoxicity [%]
0.03162 µM	0.0558 ± 0.81
0.1 µM	-1.65 ± 0.31
0.3162278 µM	-1.72 ± 0.43
1 µM	-2.52 ± 1.1
3.16228 µM	-1.87 ± 1
10 µM	-1.43 ± 0.51
31.6228 µM	-1.59 ± 0.027
100 µM	-0.0412 ± 0.23

c1ccc2c(c1)-c1cccc3cccc-2c13 [Fluoranthene]
Details	LDH release cytotoxicity [%]
0.03162 µM	-1.36 ± 0.16
0.1 µM	-0.258 ± 0.61
0.3162278 µM	-0.857 ± 0.079
1 µM	-0.0961 ± 0.27
3.16228 µM	-0.593 ± 0.16
10 µM	-0.226 ± 0.011
31.6228 µM	-0.969 ± 0.3
100 µM	-2.77 ± 0.41
